According to paper PMC7419507, “In vitro Cas9-assisted editing of modular polyketide synthase genes to produce desired natural product derivatives” (Nature Communications, 2020):
Several values for one entry are separate records, joined by “and”; a condition that tells them apart may be missing. Equal values may be shown once.

Key:
[1] = target: T1, FKBP12 and mTOR (Homo sapiens, UniProt P42345+P62942); assay: Fluoppi analysis: induction of FKBP12-mTOR complex formation in transfected HeLa cells; type: cell-based; conditions: for Foci intensity: raw data, one replicate per line
T1 construct: host or cells: HeLa cells
How it was run: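 HeLa cells co-transfected with phAG-mTOR and pAsh-FKBP12, seeded 3000 cells/well, then compound-treated 1 h after 24 h at 37 °C. Fixed, Hoechst-stained, imaged by high-content microscopy; foci fluorescence normalized to total cell fluorescence, EC50 computed.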

[2] = Cytotoxicity assay (CellTiter-Glo, 72 h), SKOV-3; type: cell-based, human; conditions: human, raw replicate data, read-out: SKOV3 viability (%)
How it was run: (§1)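 Viability read by CellTiter-Glo luminescence after 72 h exposure to 2-fold compound dilutions (0.5% DMSO), added 4 h after plating 1000 cells/well.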

[3] = test system: human ovarian adenocarcinoma SKOV-3 cells; assay: Cytotoxicity assay (CellTiter-Glo, 72 h), SKOV-3; type: cell-based; conditions: raw replicate data
How it was run: as §1

[4] = Cytotoxicity assay (CellTiter-Glo, 72 h), MESO-1; type: cell-based; conditions: human, MESO-1 malignant pleural mesothelioma cells, raw replicate data, read-out: MESO1 viability (%)
How it was run: as §1

[5] = test system: malignant pleural mesothelioma MESO-1 cells; assay: Cytotoxicity assay (CellTiter-Glo, 72 h), MESO-1; type: cell-based; conditions: raw replicate data
How it was run: as §1

[6] = test system: Jurkat, SKOV-3 and MESO-1 cells; assay: Cytotoxicity assay, statements for all tested cell lines together; type: cell-based; conditions: Jurkat, SKOV-3 and MESO-1 cells, 72 h
How it was run: as §1

T1 sequence (P42345 2025-2114 limits assumed): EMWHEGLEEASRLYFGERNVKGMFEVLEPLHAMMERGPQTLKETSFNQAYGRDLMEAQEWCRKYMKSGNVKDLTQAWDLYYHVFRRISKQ
T1 sequence (P62942 whole entry): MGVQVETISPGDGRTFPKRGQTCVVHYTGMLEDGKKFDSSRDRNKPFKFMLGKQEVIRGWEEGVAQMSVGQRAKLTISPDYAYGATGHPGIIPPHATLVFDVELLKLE

CO[C@@H]1C[C@H](C[C@@H](C)[C@@H]2CC(=O)[C@H](C)/C=C(\C)[C@@H](O)[C@@H](OC)C(=O)[C@H](C)C[C@H](C)/C=C/C=C/C=C(\C)[C@H](O)C[C@@H]3CC[C@@H](C)[C@@](O)(O3)C(=O)C(=O)N3CCCC[C@H]3C(=O)O2)CC[C@H]1O [Compound 17, (16R)-16-O-demethyl rapamycin]
PPI-inducing (binding enhancing) activity between FKBP12 and mTOR compared with rapamycin (1), in words ([1]; Fluoppi): relatively weaker activities | EC50 ([1]; Fluoppi, HeLa cells, 1 h treatment, three independent biological replicates, read-out: EC50, induction of the formation of FKBP-mTOR complex): 58 nM | Foci intensity ([1]; conc 9.53674e-5 uM): 0.008575 and 0.02543 and 0.01782 | Foci intensity ([1]; conc 0.000190735 uM): 0.01164 and 0.0145 and 0.01487 | Foci intensity ([1]; conc 0.00038147 uM): 0.01856 and 0.01046 and 0.003947 | Foci intensity ([1]; conc 0.000762939 uM): 0.01936 and 0.005776 and 0.02867 | Foci intensity ([1]; conc 0.00152588 uM): 0.005895 and 0.00599 and 0.02244 | Foci intensity ([1]; conc 0.00305176 uM): 0.01605 and 0.01212 and 0.008772 | Foci intensity ([1]; conc 0.00610352 uM): 0.0303 and 0.01224 and 0.02086 | Foci intensity ([1]; conc 0.012207 uM): 0.01472 and 0.01188 and 0.01532 | Foci intensity ([1]; conc 0.0244141 uM): 0.02138 and 0.01399 and 0.02345 | Foci intensity ([1]; conc 0.0488281 uM): 0.1099 and 0.1021 and 0.1573 | Foci intensity ([1]; conc 0.0976562 uM): 0.2733 and 0.3147 and 0.3434 | Foci intensity ([1]; conc 0.195312 uM): 0.354 and 0.3591 and 0.4502 | Foci intensity ([1]; conc 0.390625 uM): 0.4005 and 0.429 and 0.3736 | Foci intensity ([1]; conc 0.78125 uM): 0.395 and 0.3804 and 0.4169 | Foci intensity ([1]; conc 1.5625 uM): 0.3124 and 0.2927 and 0.3257 | Foci intensity ([1]; conc 3.125 uM): 0.3411 and 0.3385 and 0.2558 | Foci intensity ([1]; conc 6.25 uM): 0.3119 and 0.3692 and 0.3726 | Foci intensity ([1]; conc 12.5 uM): 0.3802 and 0.3948 and 0.3075 | Foci intensity ([1]; conc 25 uM): 0.3555 and 0.3578 and 0.2982 | Foci intensity ([1]; conc 50 uM): 0.2808 and 0.2653 and 0.2658 | viability at 72 h, 9.53674e-05 uM ([2]; SKOV-3 cells (ovarian adenocarcinoma), conc 9.53674e-5 uM): 108% | viability at 72 h, 0.000190735 uM ([2]; SKOV-3 cells (ovarian adenocarcinoma), conc 0.000190735 uM): 88.6% | viability at 72 h, 0.00038147 uM ([2]; SKOV-3 cells (ovarian adenocarcinoma), conc 0.00038147 uM): 109% | viability at 72 h, 0.000762939 uM ([2]; SKOV-3 cells (ovarian adenocarcinoma), conc 0.000762939 uM): 108% | viability at 72 h, 0.00152588 uM ([2]; SKOV-3 cells (ovarian adenocarcinoma), conc 0.00152588 uM): 108% | viability at 72 h, 0.00305176 uM ([2]; SKOV-3 cells (ovarian adenocarcinoma), conc 0.00305176 uM): 107% | viability at 72 h, 0.00610352 uM ([2]; SKOV-3 cells (ovarian adenocarcinoma), conc 0.00610352 uM): 103% | viability at 72 h, 0.012207 uM ([2]; SKOV-3 cells (ovarian adenocarcinoma), conc 0.012207 uM): 97.7% | viability at 72 h, 0.0244141 uM ([2]; SKOV-3 cells (ovarian adenocarcinoma), conc 0.0244141 uM): 95.9% | viability at 72 h, 0.0488281 uM ([2]; SKOV-3 cells (ovarian adenocarcinoma), conc 0.0488281 uM): 84.3% | viability at 72 h, 0.0976562 uM ([2]; SKOV-3 cells (ovarian adenocarcinoma), conc 0.0976562 uM): 77.9% | viability at 72 h, 0.195312 uM ([2]; SKOV-3 cells (ovarian adenocarcinoma), conc 0.195312 uM): 70% | viability at 72 h, 0.390625 uM ([2]; SKOV-3 cells (ovarian adenocarcinoma), conc 0.390625 uM): 78.2% | viability at 72 h, 12.5 uM ([2]; SKOV-3 cells (ovarian adenocarcinoma), conc 12.5 uM): 65% | viability at 72 h, 25 uM ([2]; SKOV-3 cells (ovarian adenocarcinoma), conc 25 uM): 64.3% | viability at 72 h, 50 uM ([2]; SKOV-3 cells (ovarian adenocarcinoma), conc 50 uM): 62.5% | viability at 72 h, 0.78125 uM ([2]; SKOV-3 ovarian adenocarcinoma cells, conc 0.78125 uM): 71.6% | viability at 72 h, 1.5625 uM ([2]; SKOV-3 ovarian adenocarcinoma cells, conc 1.5625 uM): 72.2% | viability at 72 h, 3.125 uM ([2]; SKOV-3 ovarian adenocarcinoma cells, conc 3.125 uM): 67.3% | viability at 72 h, 6.25 uM ([2]; SKOV-3 ovarian adenocarcinoma cells, conc 6.25 uM): 66.2% | SKOV3 viability (%) ([3]; conc 9.53674e-5 uM): 109.3% and 114.5% | SKOV3 viability (%) ([3]; conc 0.000190735 uM): 90.8% and 99.6% | SKOV3 viability (%) ([3]; conc 0.00038147 uM): 115.4% and 113.9% | SKOV3 viability (%) ([3]; conc 0.000762939 uM): 109.0% and 102.3% | SKOV3 viability (%) ([3]; conc 0.00152588 uM): 112.3% and 106.1% | SKOV3 viability (%) ([3]; conc 0.00305176 uM): 107.9% | SKOV3 viability (%) ([3]; conc 0.00610352 uM): 101.8% and 106.6% | SKOV3 viability (%) ([3]; conc 0.012207 uM): 96.6% and 104.0% | SKOV3 viability (%) ([3]; conc 0.0244141 uM): 95.8% | SKOV3 viability (%) ([3]; conc 0.0488281 uM): 79.4% and 88.5% | SKOV3 viability (%) ([3]; conc 0.0976562 uM): 86.2% and 76.7% | SKOV3 viability (%) ([3]; conc 0.195312 uM): 69.8% and 72.4% | SKOV3 viability (%) ([3]; conc 0.390625 uM): 81.8% and 79.5% | SKOV3 viability (%) ([3]; conc 0.78125 uM): 70.7% | SKOV3 viability (%) ([3]; conc 1.5625 uM): 65.2% and 67.1% | SKOV3 viability (%) ([3]; conc 3.125 uM): 69.1% | SKOV3 viability (%) ([3]; conc 6.25 uM): 64.7% and 66.1% | SKOV3 viability (%) ([3]; conc 12.5 uM): 62.1% and 61.3% | SKOV3 viability (%) ([3]; conc 25 uM): 65.7% and 67.6% | SKOV3 viability (%) ([3]; conc 50 uM): 57.2% and 61.6% | viability at 72 h, 9.53674e-05 uM ([4]; conc 9.53674e-5 uM): 103% | viability at 72 h, 0.000190735 uM ([4]; conc 0.000190735 uM): 89.1% | viability at 72 h, 0.00038147 uM ([4]; conc 0.00038147 uM): 100% | viability at 72 h, 0.000762939 uM ([4]; conc 0.000762939 uM): 97.1% | viability at 72 h, 0.00152588 uM ([4]; conc 0.00152588 uM): 98.3% | viability at 72 h, 0.00305176 uM ([4]; conc 0.00305176 uM): 92.9% | viability at 72 h, 0.00610352 uM ([4]; conc 0.00610352 uM): 89.6% | viability at 72 h, 0.012207 uM ([4]; conc 0.012207 uM): 83.5% | viability at 72 h, 0.0244141 uM ([4]; conc 0.0244141 uM): 86.9% | viability at 72 h, 0.0488281 uM ([4]; conc 0.0488281 uM): 85.1% | viability at 72 h, 0.0976562 uM ([4]; conc 0.0976562 uM): 78.9% | viability at 72 h, 0.195312 uM ([4]; conc 0.195312 uM): 71.5% | viability at 72 h, 0.390625 uM ([4]; conc 0.390625 uM): 79.6% | viability at 72 h, 0.78125 uM ([4]; conc 0.78125 uM): 73.1% | viability at 72 h, 1.5625 uM ([4]; conc 1.5625 uM): 71.7% | viability at 72 h, 3.125 uM ([4]; conc 3.125 uM): 72.9% | viability at 72 h, 6.25 uM ([4]; conc 6.25 uM): 74.2% | viability at 72 h, 12.5 uM ([4]; conc 12.5 uM): 72.1% | viability at 72 h, 25 uM ([4]; conc 25 uM): 67.4% | viability at 72 h, 50 uM ([4]; conc 50 uM): 61.5% | MESO1 viability (%) ([5]; conc 9.53674e-5 uM): 101.2% and 92.1% | MESO1 viability (%) ([5]; conc 0.000190735 uM): 91.6% and 98.7% | MESO1 viability (%) ([5]; conc 0.00038147 uM): 104.8% and 96.5% | MESO1 viability (%) ([5]; conc 0.000762939 uM): 94.3% and 95.5% | MESO1 viability (%) ([5]; conc 0.00152588 uM): 93.6% and 93.5% | MESO1 viability (%) ([5]; conc 0.00305176 uM): 90.4% and 91.1% | MESO1 viability (%) ([5]; conc 0.00610352 uM): 88.7% and 90.9% | MESO1 viability (%) ([5]; conc 0.012207 uM): 91.2% | MESO1 viability (%) ([5]; conc 0.0244141 uM): 80.2% and 88.3% | MESO1 viability (%) ([5]; conc 0.0488281 uM): 80.6% and 75.2% | MESO1 viability (%) ([5]; conc 0.0976562 uM): 77.6% and 79.5% | MESO1 viability (%) ([5]; conc 0.195312 uM): 74.7% and 70.5% | MESO1 viability (%) ([5]; conc 0.390625 uM): 76.8% and 75.4% | MESO1 viability (%) ([5]; conc 0.78125 uM): 70.1% and 72.2% | MESO1 viability (%) ([5]; conc 1.5625 uM): 74.3% and 71.9% | MESO1 viability (%) ([5]; conc 3.125 uM): 66.5% and 67.5% | MESO1 viability (%) ([5]; conc 6.25 uM): 73.9% and 73.5% | MESO1 viability (%) ([5]; conc 12.5 uM): 65.3% and 66.5% | MESO1 viability (%) ([5]; conc 25 uM): 64.8% and 66.6% | MESO1 viability (%) ([5]; conc 50 uM): 62.7% and 65.8% | Effect on cell viability, in words [6]: slightly suppressed the cell viabilities
